Test results taken from patent US20260285816A1, “Piperazinyl-Modified Quinazolinyl-Aryl Urea Derivative, And Preparation Method And Use Thereof” (Guangxi Normal University, priority 2025, published 2026).

Columns and labels:
Assay type in all cases: cell-based, human
[1] = tested on: J82 cells; assay: CCK-8 anti-proliferative assay, J82; details: Homo sapiens, J82; Table 10; co-incubated 48 h; read-out: Anti-proliferative activity (IC50 ± standard deviation) J82
Description: (§1) The obtained quinazolinyl-aryl urea derivatives were screened for compounds with optimal activity using the following method.
(§2) Experimental Procedure for Anti-Proliferative Activity Evaluation: The CCK-8 assay was employed. Cells in logarithmic growth phase were harvested, adjusted to appropriate density, and uniformly seeded into 96-well plates using a multichannel pipette (180 μL cell suspension containing complete medium per well, 5,000 cells/well). Blank control wells (containing basal medium, CCK-8 solution, and DMSO only) were set. Cells were incubated at 37° C. under 5% CO2. After 70% confluency was reached, test compounds (target compounds/positive controls) were added at final concentrations of 1, 2, 4, 6, 8, 12, 16, 24, and 30 μM (3 repeated wells per concentration). Compounds were pre-dissolved in DMSO, sterilized, and diluted with medium before adding 20 μL/well. After co-incubation for designated durations, 10 μL CCK-8 solution was added per well followed by 1-4 h incubation (different cells have different incubation times). […] Inhibition rates were calculated as: (ODcontrol−ODtreatment)/ODcontrol×100%. Median inhibitory concentrations (IC50 values) were derived using Origin v8.0 software.

[2] = tested on: UM-UC-3 cells; assay: CCK-8 anti-proliferative assay, UM-UC-3; details: Homo sapiens, UMUC3; Table 10; co-incubated 48 h; read-out: Anti-proliferative activity (IC50 ± standard deviation) UM-UC-3
How it was run: (§3)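 Cells seeded at 5,000/well and grown at 37° C., 5% CO2 to 70% confluency, then treated with compound at final 1, 2, 4, 6, 8, 12, 16, 24 and 30 μM in triplicate.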

[3] = tested on: T24 cells; assay: CCK-8 anti-proliferative assay, T24; details: Homo sapiens, T-24; Table 10; co-incubated 48 h; read-out: Anti-proliferative activity (IC50 ± standard deviation) T24
How it was run: (§4)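 Cells seeded at 5,000/well were grown at 37° C. under 5% CO2 to 70% confluency, then exposed in triplicate to 1–30 μM compound (1, 2, 4, 6, 8, 12, 16, 24, 30 μM) for designated durations. CCK-8 was added for 1–4 h, OD read at 450 nm, and IC50 derived from inhibition versus control.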

[4] = tested on: 5637 cells; assay: CCK-8 anti-proliferative assay, 5637; details: Homo sapiens; Table 10; co-incubated 48 h; read-out: Anti-proliferative activity (IC50 ± standard deviation) 5637
How it was run: as §3

[5] = tested on: 143B cells; assay: CCK-8 anti-proliferative assay, 143B; details: Homo sapiens, 143B; Table 11; co-incubated 48 h; read-out: Anti-proliferative activity (IC50 ± standard deviation) 143B
How it was run: as §4

[6] = tested on: MG-63 cells; assay: CCK-8 anti-proliferative assay, MG-63; details: Homo sapiens, MG-63; Table 11; co-incubated 48 h; read-out: Anti-proliferative activity (IC50 ± standard deviation) MG-63
How it was run: as §4

[7] = tested on: BxPC-3 cells; assay: CCK-8 anti-proliferative assay, BxPC-3; details: Homo sapiens, BXPC-3; Table 11; co-incubated 48 h; read-out: Anti-proliferative activity (IC50 ± standard deviation) BxPC-3
How it was run: as §4

[8] = tested on: PANC-1 cells; assay: CCK-8 anti-proliferative assay, PANC-1; details: Homo sapiens, PANC-1; Table 11; co-incubated 48 h; read-out: Anti-proliferative activity (IC50 ± standard deviation) PANC-1
How it was run: as §4

[9] = tested on: HeLa cells; assay: CCK-8 anti-proliferative assay, HeLa; details: Homo sapiens, HeLa; Table 12; co-incubated 48 h; read-out: Anti-proliferative activity (IC50 ± standard deviation) HeLa
Description: as §1, §2

[10] = tested on: MCF-7 cells; assay: CCK-8 anti-proliferative assay, MCF-7; details: Homo sapiens, MCF7; Table 12; co-incubated 48 h; read-out: Anti-proliferative activity (IC50 ± standard deviation) MCF-7
How it was run: as §3

[11] = tested on: A549 cells; assay: CCK-8 anti-proliferative assay, A549; details: Homo sapiens, A549; Table 13; co-incubated 48 h; read-out: Anti-proliferative activity (IC50 ± standard deviation) A549
How it was run: as §3

[12] = tested on: Hep G2 cells; assay: CCK-8 anti-proliferative assay, Hep G2; details: Homo sapiens, HepG2; Table 12; co-incubated 48 h; read-out: Anti-proliferative activity (IC50 ± standard deviation) Hep G2
How it was run: as §4

[13] = tested on: SK-OV-3 cells; assay: CCK-8 anti-proliferative assay, SK-OV-3; details: Homo sapiens, SK-OV-3; Table 12; co-incubated 48 h; read-out: Anti-proliferative activity (IC50 ± standard deviation) SK-OV-3
How it was run: as §3

[14] = tested on: immortalized ureteral epithelial cells (SV-HUC-1); assay: CCK-8 anti-proliferative assay, normal cells SV-HUC-1; details: Homo sapiens, SV-HUC1; Table 13; normal cells; co-incubated 48 h; read-out: Anti-proliferative activity (IC50 ± standard deviation) SV-HUC-1
How it was run: as §3

[15] = tested on: embryonic lung fibroblasts (WI-38); assay: CCK-8 anti-proliferative assay, normal cells WI-38; details: Homo sapiens, WI-38, Table 13, co-incubated 48 h, read-out: Anti-proliferative activity (IC50 ± standard deviation) WI-38
From the text: The obtained quinazolinyl-aryl urea derivatives were screened for compounds with optimal activity using the following method. All cell lines employed in this experiment were of human origin, including: bladder cancer cells: J82, UM-UC-3, T24, 5637, pancreatic cancer cells: BxPC-3, PANC-1, osteosarcoma cells: 143B, MG-63, cervical cancer cells: HeLa, breast cancer cells: MCF-7, NSCLC cells: A549, hepatoblastoma cells: Hep G2, and ovarian cancer cells: SK-OV-3, as well as normal cell lines: immortalized ureteral epithelial cells (SV-HUC-1), embryonic lung fibroblasts (WI-38).
Experimental Procedure for Anti-Proliferative Activity Evaluation: The CCK-8 assay was employed. Cells in logarithmic growth phase were harvested, adjusted to appropriate density, and uniformly seeded into 96-well plates using a multichannel pipette (180 μL cell suspension containing complete medium per well, 5,000 cells/well). Blank control wells (containing basal medium, CCK-8 solution, and DMSO only) were set. Cells were incubated at 37° C. under 5% CO2. After 70% confluency was reached, test compounds (target compounds/positive controls) were added at final concentrations of 1, 2, 4, 6, 8, 12, 16, 24, and 30 μM (3 repeated wells per concentration). Compounds were pre-dissolved in DMSO, sterilized, and diluted with medium before adding 20 μL/well. After co-incubation for designated durations, 10 μL CCK-8 solution was added per well followed by 1-4 h incubation (different cells have different incubation times). The reaction was terminated, and OD (optical density) values at 450 nm were measured using a microplate reader. Inhibition rates were calculated as: (ODcontrol−ODtreatment)/ODcontrol×100%. Median inhibitory concentrations (IC50 values) were derived using Origin v8.0 software.

IC50 [3] [µM] | IC50 [7] [µM] | IC50 [8] [µM] | IC50 [9] [µM] | IC50 [10] [µM] | IC50 [11] [µM] | IC50 [13] [µM] | SMILES | IC50 [1] [µM] | IC50 [2] [µM] | IC50 [4] [µM] | IC50 [5] [µM] | IC50 [6] [µM] | IC50 [12] [µM] | IC50 [14] [µM] | IC50 [15] [µM]
5.92 ± 0.54 | 15.5 ± 0.92 | 15.1 ± 0.66 | 6.42 ± 0.56 | 5.59 ± 0.46 | 9.69 ± 0.72 | 5.16 ± 0.27 | COc1cc2ncnc(NCc3cccc(NC(=O)Nc4cc(C(F)(F)F)cc(C(F)(F)F)c4)c3)c2cc1OCCCCCCN1CCC(CN2CCN(c3ccccn3)CC2)CC1 [Compound 8-2w, N-(3-(((7-methoxy-6-((6-(4-((4-(pyridin-2-yl)piperazin-1-yl)methyl)piperidin-1-yl)hexyl)oxy)quinazolin-4-yl)amino)methyl)phenyl)-N′-(3,5-bis(trifluoromethyl)phenyl)urea] | 7.84 ± 0.52 | 6.42 ± 0.16 | 13.1 ± 0.67 | 8.04 ± 0.45 | 8.33 ± 0.81 | 5.87 ± 0.49 | 7.19 ± 0.68 | 9.49 ± 0.42
6.01 ± 0.46 | 9.06 ± 0.42 | 12.8 ± 0.62 | 7.25 ± 0.38 | 8.09 ± 0.48 | 7.67 ± 0.93 | 14.2 ± 0.84 | COc1cc2ncnc(NCc3cccc(NC(=O)Nc4cc(C)cc(C)c4)c3)c2cc1OCCCCCCN1CCC(CN2CCN(c3ccccn3)CC2)CC1 [Compound 8-2f, N-(3-(((7-methoxy-6-((6-(4-((4-(pyridin-2-yl)piperazin-1-yl)methyl)piperidin-1-yl)hexyl)oxy)quinazolin-4-yl)amino)methyl)phenyl)-N′-(3,5-dimethylphenyl)urea] | 12 ± 0.87 | 12 ± 0.86 | 6.91 ± 0.67 | 5.75 ± 0.36 | 6.92 ± 0.53 | 11.7 ± 0.84 | 11.6 ± 0.79 | 9.89 ± 0.53
7.04 ± 0.55 | 8.56 ± 0.72 | 8.79 ± 0.98 | 5.62 ± 0.44 | 7.62 ± 0.77 | 6.59 ± 0.64 | 8.96 ± 0.83 | CCc1ccccc1NC(=O)Nc1cccc(CNc2ncnc3cc(OC)c(OCCCCCCN4CCC(CN5CCN(c6ccccn6)CC5)CC4)cc23)c1 [Compound 8-2g, N-(3-(((7-methoxy-6-((6-(4-((4-(pyridin-2-yl)piperazin-1-yl)methyl)piperidin-1-yl)hexyl)oxy)quinazolin-4-yl)amino)methyl)phenyl)-N′-(2-ethylphenyl)urea] | 5.76 ± 0.31 | 11.6 ± 0.62 | 6.04 ± 0.43 | 5.37 ± 0.29 | 6.04 ± 0.65 | 6.38 ± 0.44 | 7.42 ± 0.35 | 9.39 ± 0.41
